Here are results for 1 compound from patent US9522163B2, “Methods of treating hepatitis” (priority 2002, dated 2016).

The test system of assay [1] is acetaminophen-induced liver injury. In words: Acetaminophen (APAP)-induced hepatitis model. It counts as in vivo, mice. Here is the method:
The animals were exposed to CO at a concentration of 250 ppm. […] Mice were placed in the exposure chamber as required.
To generate the data in FIG. 21, Male C57BL/6J mice were exposed to CO (250 ppm) either 1 hr prior or 4 hr post administration of APAP (500 mg/kg, i.p.). The mice were then maintained in CO for the duration of the experiment. Serum ALT levels were determined 20 hr after APAP administration. Control mice received APAP and were maintained in air. This protocol was designed to allow hepatitis to develop for four hours before administering CO.

For assay [2], the system named is hemorrhagic shock liver injury. In words: Murine model of hemorrhagic shock, liver injury. The format is in vivo. As to conditions: inhaled CO during resuscitation after 2.5 hour shock phase; at 24 hr.
Assay [3] concerns iNOS. In words: iNOS protein immunoblot in hepatocytes. The format is cell-based. As to conditions: TNF-α/ActD 6-8 hr in presence of CO 250 ppm vs TNF-α alone. The method, then:
(§1) Western blot analysis was performed on primary hepatocytes in culture or from liver homogenates with antibodies to iNOS (Transduction Laboratories, Lexington, Ky.; 1:1000), HO-1 (Calbiochem; 1:2000), or β-actin (Sigma Chemical; 1:5000). Thirty μg protein in cell culture experiments or 100 μg protein from liver homogenates was loaded per well for SDS-PAGE.
To generate the data in FIG. 8, expression of iNOS protein was evaluated using immunoblotting techniques. Briefly, cell extracts from hepatocytes were treated with TNF-α/ActD for 6-8 hr in the presence and absence of CO (250 ppm). Control cells received air or CO alone.

Assay [4] has as its system LPS/D-Gal-induced liver injury. The assay can be described thus: LPS/D-Gal acute hepatitis model. The format is in vivo, mice. Here is the method:
Results discussed above were confirmed using lipopolysaccharide (LPS, also referred to as endotoxin) in place of TNF. […] In mice pretreated with 250 ppm CO, the increase in ALT was reduced by >75%, to 250+/−75 IU/ml. To further characterize the effects observed with CO in this model, serum interleukin-6 was measured, and found to be reduced 65% in animals breathing CO vs air-breathing controls (data not shown). […] Few changes in the markers of inflammation (edema, hemorrhage, neutrophil infiltration) were observed. Architecture was maintained and appeared grossly similar to untreated and CO (in the absence of LPS/D-Gal)-treated mice. Overall, the use of LPS/D-Gal to induce acute hepatitis paralleled and confirmed data generated using TNF/D-Gal treatment.

The subject of assay [5] is TNF-α/D-gal-induced liver injury. The method, then: Male C57BL/6J ([…], Bar Harbor, Me.), 8-12-wk-old inos^−/− mice and wild type littermates (bred/maintained at the University of Pittsburgh) were used for in vivo experiments.
10 mg/kg subcutaneously (s.c.), Alexis Biochem., San Diego, Calif.) or cobalt protoporphyrin (CoPP, 5 mg/kg, intraperitoneally (i.p.), Frontier Scientific, Logan, Utah). […] Where indicated, acetaminophen (Sigma Chem. Co.; St Louis, Mo.) was administered (500 mg/kg, i.p.).
A CO analyzer (Interscan, Chatsworth, Calif.) was used to measure CO levels continuously in the chamber. CO concentrations were maintained at 250 ppm at all times. Mice were placed in the exposure chamber as required.
Whether HO-1 is protective against acute hepatic failure was investigated. Cobalt protoporphyrin (5 mg/kg, i.p.) was administered to male C57BL/6J mice. Twenty-four hours later, TNF-α/D-gal (0.3 μg/8 mg/mouse, i.p., respectively) was administered to the mice. Serum alanine aminotransferase (ALT) levels in the mice were measured 8 hours after administration of TNF-α/D-gal.
After receiving TNF-α/D-gal, mice were returned to the CO exposure chamber and their serum was analyzed for ALT levels 6-8 hr later.
To generate the data presented in FIGS. 11A-11H, liver samples from mice treated with TNF-α/D-gal in the presence and absence of CO (250 ppm) for 8 hr were sectioned and stained for hematoxylin & eosin (H&E), activated caspase 3 (as indicated by an increase in red intensity), and for TUNEL positive cells (as demarcated by the increased green cellular staining; a marker of cell death). Nuclei stained blue.
L-NIL was administered 2 hr prior to CO. CO-treated animals were then pre-treated (250 ppm) for 1 hr prior to TNF-α/D-gal.
VP was selectively designed to deliver NO directly to the liver. One hour after the initial VP dose, the animals were exposed to CO for 1 hr prior to administration of TNF-α/D-gal (see above). Serum ALT levels were determined 6-8 hr later.
These mice and inos^−/− mice were then administered CoPP. L-NIL was maintained in the water throughout the experiment. Control and inos^−/− mice received normal drinking water. Twenty-four hr after administration of CoPP, TNF-α/D-gal was administered and serum ALT determined 6-8 hr later.

Assay [6] concerns iNOS. The assay can be described thus: Liver iNOS expression (immunoblot, immunostaining). It counts as in vivo, mice. Here is the method: as §1
For histology and immunohistochemistry, livers were fixed in 2% paraformaldehyde and then snap frozen in liquid nitrogen. Livers were then sectioned (7 microns thick) and stained with hematoxylin and eosin (H&E). Liver sections were also stained for TUNEL and activated caspase-3 using kits according to the manufacturer's instructions (Promega). Sections for iNOS immunocytochemistry were blocked with 5% goat serum containing 0.2% bovine serum albumin. Thereafter, sections were incubated for 1 hour at room temperature with anti-iNOS antibody (Transduction Laboratories; 1:300), then washed and probed with a secondary antibody conjugated to Alexa-488 (Molecular Probes, Eugene, Oreg.). Nuclei were stained with Hoechst dye. Images were acquired using an Olympus Provus microscope. Hepatocytes in culture were plated on gelatinized coverslips, stimulated as indicated, and then fixed in 2% paraformaldehyde containing 0.1% Triton X-100. […]
Background: A western blot detects proteins with antibodies after separation by electrophoresis.

Assay [7] concerns HO-1. In words: Liver HO-1 expression (immunoblot). The format is in vivo, mice. Here is the method:
as §1
To assess the role of iNOS on TNF-α/D-gal-induced HO-1 expression in the liver (data presented in FIG. 16), mice were administered L-NIL (5 mg/kg, i.p.) 2 hr prior to pre-treatment with CO (250 ppm) and every 2 hr thereafter. Control mice received L-NIL and remained in room air.

[8] abbreviates: pretreated with 250 ppm CO, 8 hours after LPS/D-Gal.
[9] abbreviates: CO 250 ppm for 8 hr, TNF-α/D-gal.

Where only a bound is given, the exact number is not on record here.

As for `[C-]#[O+]` [CO, carbon monoxide], in assay [1] (CO 250 ppm 1 hr prior to APAP), the “Protection with CO pre-treatment prior to APAP compared with post-treatment” value is recorded as “protection was similar”. Also, the “Serum ALT” value in assay [1] (CO 250 ppm from 4 hr post APAP 500 mg/kg i.p., 20 hr after APAP, controls 622±44) stood at 175±137. Further, in assay [1] (CO 4 hours after APAP 500 mg/kg i.p.), the “Reduction in liver injury” value came to 62%. For the same compound, the “Reduction in serum ALT” value in assay [2] was over 65%. For the same compound, the iNOS protein entry in assay [3] was “markedly increased”. For the same compound, the Liver histopathology entry in assay [4] (CO and LPS/D-Gal) is reported as “protected to the same extent”. Moreover, the “Serum interleukin-6 reduced vs air-breathing controls” value in assay [4] (animals breathing CO, LPS/D-Gal, data not shown) amounted to 65%. Moreover, in assay [4] (setting [8]), the “Reduction of the increase in serum ALT” value was over 75% and the “Serum ALT” value was 250+/−75 IU/ml. Further, the “TNF-α/D-gal-induced liver damage by H&E staining” value in assay [5] (CO 250 ppm for 8 hr) is reported as “markedly reduced”. In assay [5] (setting [9]), the “Staining of activated caspase-3 in liver” value is recorded as “less staining” and the “TUNEL positive cells in liver” value is recorded as “fewer TUNEL positive cells”. For the same compound, the “Serum ALT lower than in air-exposed mice” value in assay [5] (CO 250 ppm, 1 hr pre-treatment and continued, ALT 6-8 hr after TNF-α/D-gal) stood at 74%. Further, the “Protection against liver damage (serum ALT, histopathology) in absence of iNOS function/expression” value in assay [5] (CO 250 ppm, inos−/− mice and wild type mice treated with L-NIL 5 mg/kg i.p. every two hours) was “unable to protect against liver damage”. In addition, the “Liver iNOS expression” value in assay [6] (CO 250 ppm 1 hr prior to TNF-α/D-gal, livers six hours later) is on record as “markedly increased”. Moreover, the “Liver iNOS expression, CO without TNF-α/D-gal” value in assay [6] (immunostaining) is recorded as “modest increase”. Moreover, the “Liver HO-1 expression when iNOS was inhibited” value in assay [7] (CO 250 ppm with L-NIL 5 mg/kg i.p. every 2 hr) is listed as “unable to induce expression”. The “Liver HO-1 expression” value in assay [7] (CO 250 ppm, presence and absence of TNF-α/D-gal) was “significant increase”.
